Experimental data taken from PubChem BioAssay AID1996.
In brackets after ≈: the same amount, converted by molar mass.

Conditions: buffer; pH 7.4; 200.0 µM

SMILES	solubility kinetic [µg/mL]
O=C(NCc1ccc2c(c1)OCO2)NC12CC3CC(CC(C3)C1)C2	1.3 (≈ 3.96 µM)
NS(=O)(=O)c1ccc(NC(=O)Cc2cccs2)cc1	> 44.5
O=C(O)c1nccnc1C(=O)NCCc1c[nH]c2ccccc12	42.1 (≈ 136 µM)
CCOC(=O)CNc1cccc(C(F)(F)F)c1	8 (≈ 32.4 µM)
O=C1OC(N2C(=O)CC[C@H]2C(=O)Nc2ccc3c(c2)OCO3)c2ccccc21 (some centres undefined)	> 57.1
Cc1cc(C)c(S(=O)(=O)NCc2csc(C)n2)c(C)c1	> 46.6
NS(=O)(=O)c1ccc(NC(=O)c2cc(Cl)sc2Cl)cc1	15.4 (≈ 43.8 µM)
CCOCCCNC(=O)/C(C#N)=C/c1ccc([N+](=O)[O-])o1	24 (≈ 81.8 µM)
N#Cc1ccc(C(=O)NC(=S)NC2CCCCC2)cc1	21.9 (≈ 76.2 µM)
Cc1ccc(Nc2cc(=O)[nH]c(=O)[nH]2)cc1Cl	2 (≈ 7.95 µM)
COc1cccc(CNC(=O)N2CCN(c3ccccc3)CC2)c1	20.5 (≈ 63 µM)
Cc1cc(=O)[nH]c(Nc2ccccc2C)n1	> 32.3
[Br-].c1ccc(Cc2cc[n+](Cc3ccccn3)cc2)cc1	> 51.2
CCOC(=O)C(c1ccccc1)C(Nc1ccc(F)cc1)c1ccccn1 (centres undefined)	11.9 (≈ 32.7 µM)
CCOCCCNc1ncnc2c1nc1n2CCCC1	> 41.3
Cl.c1ccc(NCc2cccc3ccccc23)nc1	4.1
COc1cnc(-c2ccccn2)nc1N(C)c1ccccc1	39.7 (≈ 136 µM)
COC(=O)Nc1ccc(S(=O)(=O)N2CCCC(C(=O)NCC3CCCO3)C2)cc1 (centres undefined)	> 63.8
COc1ccccc1N(Cc1ccccc1)S(=O)(=O)c1cccc(C(=O)N2CCCCC2)c1	11.3 (≈ 24.3 µM)
CC1CCN(C(=O)CSc2nnc(N)s2)CC1	> 40.9
NS(=O)(=O)c1cccc(NC(=O)CC2(CC(=O)O)CCCC2)c1	41.7 (≈ 123 µM)

SMILES	solubility kinetic [µg/mL]
CCOc1cc([N+](=O)[O-])c2nc(N)sc2c1	4.3 (≈ 18 µM)
CC(c1ccccc1)N1CCN(C(=O)CCl)CC1.Cl (centres undefined)	43.3
CN1CCN(c2nc(-c3ccc(Cl)cc3)cc(=O)[nH]2)CC1	39.8 (≈ 131 µM)
CCc1ccc(NC(=O)Cn2cnc([N+](=O)[O-])c2)cc1	23 (≈ 83.9 µM)
CN(C)C(=O)C1CCC(=O)N1Cc1cccs1 (centres undefined)	> 37.8
COCc1c(C(=O)N2CCc3ccccc32)oc2ccccc12	7.6 (≈ 24.7 µM)
O=c1c2ccc(Cl)cc2[nH]c(=S)n1-c1cccnc1	10.8 (≈ 37.3 µM)
O=C1CC(C(=O)NC2CCCCC2)C2(CCCCC2)O1 (centres undefined)	> 41.9
Cc1ccc(S(=O)(=O)N2CCOCC2)cc1NC(=O)CNC(C)c1ccccc1.O=C(O)C(=O)O (centres undefined)	74.1
COc1cc(/C=C2\SC(N)=NC2=O)ccc1O	34.5 (≈ 138 µM)
Brc1cnc2ccccc2c1N1CCCCC1	1.2 (≈ 4.12 µM)
CCOc1ccc(OCc2ccc(C(=O)NC(C)C)o2)cc1	13.3 (≈ 43.8 µM)
O=C(CCCc1nc(-c2ccccc2)no1)NC1CCCC1	> 44.9
Cc1ccc(S(=O)(=O)/N=C(\N)c2ccc(F)cc2)cc1	38.1 (≈ 130 µM)
Cc1[nH]c(=O)[nH]c(=O)c1S(=O)(=O)N1CCCCC1	> 41
COCCCNC(=S)N/N=C/c1ccc(O)cc1	> 40.1
COc1ccc(C(=O)N(C)Cc2ccccc2F)cc1S(=O)(=O)N1CCCC1	> 61
CCOc1ccc(N=Cc2c(O)n(Cc3ccccc3)c(=S)[nH]c2=O)cc1	0.5 (≈ 1.31 µM)
O=C(C1CCCCCC1)N1CC[C@@H](N2CCC(O)CC2)[C@H](O)C1	> 48.7
CC(NC(=O)c1cc(Br)ccc1Cl)c1ccccc1 (centres undefined)	3.8 (≈ 11.2 µM)
CCc1ccc(NC(=O)C(=O)NCC2CCCO2)cc1 (centres undefined)	18.5 (≈ 66.9 µM)

SMILES	solubility kinetic [µg/mL]
Cc1cc(C)cc(NS(=O)(=O)Cc2ccccc2)c1	39.5 (≈ 143 µM)
Cc1cccc(C)c1OCCNC(=O)OCc1ccccc1	15.8 (≈ 52.8 µM)
CC(=O)N(CCOc1ccccc1)CCOc1ccccc1	> 44.9
Cc1onc(-c2ccccc2)c1C(=O)N(C)CC(=O)Nc1ccc(F)c(F)c1F	> 60.5
Cc1cc2cc(CNC(=S)NCc3ccccc3)ccc2n1C	1.8 (≈ 5.56 µM)
CC(=O)Nc1ccc(S(=O)(=O)N(CC(=O)NC2CC2)Cc2ccccc2)cc1	> 60.2
O=C(c1ccsc1)N1CCCC(Nc2ccc(F)c(F)c2)C1 (centres undefined)	44.5 (≈ 138 µM)
COc1ccc(OCC(=O)Nc2nc3cc4c(cc3s2)OCCO4)cc1	4.6 (≈ 12.4 µM)
O=C(c1cccc(F)c1)N1CCCC(C(=O)N2CCCCC2)C1 (centres undefined)	> 47.8
O=c1[nH]c(O)c(C=Nc2cccc(F)c2)c(=O)[nH]1	4.8 (≈ 19.3 µM)
Cc1ccsc1CNC12CC3CC(CC(C3)C1)C2.Cl	38.1
CCN(CC)C(=O)C1CCCN(C/C=C/c2ccccc2[N+](=O)[O-])C1 (centres undefined)	41.7 (≈ 121 µM)
COc1ccc2c(c1)c(CC[NH3+])c(C)n2Cc1ccccc1.[Cl-]	44.5
COc1ccccc1C(=O)NCCC(=O)NC1=NCCS1	> 46.1
COc1ccc(NC(=O)c2cccc(Cl)c2)c[n+]1[O-]	> 41.8
CN1C(=O)C(=O)N(c2cccc(C(F)(F)F)c2)C1=O	39.9 (≈ 147 µM)
CN1CCN(c2ccc(Cl)cc2N)CC1	30.6 (≈ 136 µM)
COc1ccc(/C(N)=N/OC(=O)c2ccc(OC)c([N+](=O)[O-])c2)cc1OC	0.6 (≈ 1.6 µM)
Cc1c(N)cccc1-n1cccc1	20 (≈ 116 µM)
COc1ccc(NC(=O)c2ccc(NC(=O)COC(=O)c3cnc(C)cn3)cc2)cc1	9.1 (≈ 21.6 µM)
O=C1c2cccc([N+](=O)[O-])c2C(=O)N1C1CCCCC1	17.7 (≈ 64.5 µM)

SMILES	solubility kinetic [µg/mL]
CN(C)c1ccc(C(=O)C(=O)c2ccccc2)cc1	10.8 (≈ 42.6 µM)
O=C(NC(=O)c1ccccc1)Nc1ccccc1	1.2 (≈ 4.99 µM)
Cn1c(=O)c2[nH]c(SCC(=O)c3ccc(F)cc3)nc2n(C)c1=O	7.5 (≈ 21.5 µM)
COc1ccc(NS(=O)(=O)c2ccc(C(=O)N3CCC(C)CC3)cc2)cc1	> 58.3
CCCCCCNc1nc(Cl)nc(NC(C)(C)CO)n1	3.1 (≈ 10.3 µM)
CCC(=O)N1CCc2cc(S(=O)(=O)N3CCCC3)ccc21	7.3 (≈ 23.7 µM)
CCC(=O)c1ccc(OCC(=O)NC2(C#N)CCCCC2)cc1	45.4 (≈ 144 µM)
COc1ccc(C)cc1NC(=O)NC1CCCc2ccccc21 (centres undefined)	< 0.3
Cc1cccc(NC(=O)C2CCN(S(C)(=O)=O)CC2)c1C	> 46.6
CSS(=O)(=O)c1cccc2cccnc12	> 35.9
CCC(C)(C)NC(=O)C1CCCN1C(=O)NC1CCCCC1 (centres undefined)	> 46.4
CCCCN1CC2=C(C1=O)C(c1ccc(O)cc1)NC(=O)N2C (centres undefined)	> 47.3
Cc1cc(C(=O)NCCN2CCOCC2)c2ccccc2n1	> 44.9
O=S(=O)(Nc1ccc(-c2cnco2)cc1)c1ccccc1	43.6 (≈ 145 µM)
COc1ccccc1NS(=O)(=O)c1cccc(NS(=O)(=O)c2cc(C(=O)O)ccc2OC)c1	> 73.9
O=[N+]([O-])c1c(NCCO)cc(N2CCCCC2)c2nonc12	38.6 (≈ 126 µM)
CC1CCCN(C(=O)COC(=O)COc2ccc(Cl)cc2)C1 (centres undefined)	20.2 (≈ 62 µM)
CN1C(=O)C2(OCC(C)([N+](=O)[O-])CO2)c2ccccc21 (centres undefined)	21.7 (≈ 78 µM)
COC(=O)c1ccc(NS(=O)(=O)c2ccc(S(=O)(=O)N3CCOCC3)cc2)cc1	> 66.1
O=C(NCc1ccccc1)NC12CC3CC(CC(C3)C1)C2	2.6 (≈ 9.14 µM)
Cc1ccc2nc(SCC(=O)Nc3ccc(C(N)=O)cc3)[nH]c2c1	9.9 (≈ 29.1 µM)
